We go through 31 compounds from patent publication US11447445B2, “Diabetes and metabolic syndrome treatment with a novel dual modulator of soluble epoxide hydrolase and peroxisome proliferator-activated receptors” (priority 2015, dated 2022).

The structures appear in SMILES notation.

T1 sequence (Q07869 239-466): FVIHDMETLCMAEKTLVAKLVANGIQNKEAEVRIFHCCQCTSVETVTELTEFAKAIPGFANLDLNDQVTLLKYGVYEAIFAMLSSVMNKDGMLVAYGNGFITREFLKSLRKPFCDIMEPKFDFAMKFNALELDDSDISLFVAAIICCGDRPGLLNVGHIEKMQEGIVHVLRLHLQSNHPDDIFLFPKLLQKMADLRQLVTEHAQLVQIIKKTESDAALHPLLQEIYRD

One test concerns the target T1, PPARα (Homo sapiens, UniProt Q07869).
T1 construct: expressed in transfected cells; host or cells: COS-7
Assay: not given
Format: cell-based.
Settings: not given
As to the method:
(§1) COS-7 cells (PPAR) were grown in DMEM high glucose, supplemented with 10% fetal calf serum (FCS), 1% sodium pyruvate (SP) and 1% penicillin/streptomycin (PS) at 37° C. and 5% CO2. Used plasmids for PPAR transactivation assay are shown under supporting informations.
(§2) The day before transfection, COS-7 cells were seeded in 96-well plates with a density of 30,000 cells per well. Transient transfection was carried out using Lipofectamine LTX reagent (Invitrogen, Carlsbad, Calif., USA) according to the manufacturer's protocol with pFR-Luc (Stratagene), pRL-SV40 (Promega) and the Ga14-fusion receptor plasmids (pFA-CMV-hPPAR-LBD) of the respective PPAR subtype. 5 h after transfection, medium was changed to DMEM without phenol red and 10% FCS, supplemented with 1% SP, 1% PS and 1% L-glutamine, now additionally containing 0.1% DMSO and the respective test compound or 0.1% DMSO alone as untreated control. Each concentration was tested in triplicate wells and each experiment was repeated independently at least three times. Following overnight incubation with the test compounds, cells were assayed for luciferase activity using Dual-Glo™ Luciferase Assay System (Promega) according to the manufacturer's protocol. Luminescence was measured with an Infinite m200 luminometer (Tecan Deutschland GmbH). Each concentration of the compounds was tested in triplicate wells. Normalization for transfection efficacy and cell growth was done by division of the firefly luciferase data by renilla luciferase data resulting in relative light units. Activation factors were obtained by dividing by DMSO control. […] All compounds were evaluated by comparison of the achieved maximum effect to that of the reference compound (pioglitazone for PPARγ, GW7647 for PPARa, and L165041 for PPARS each with 1 μM). Data are expressed as mean±SE; n≥3.
(§3) The Gal4-fusion receptor plasmids pFA-CMV-PPARa-LBD, pFA-CMV-PPARS-LBD and pFA-CMV-PPARγ-LBD containing the hinge region and ligand binding domain (LBD) for each of the PPAR subtypes, respectively, were constructed by integrating cDNA fragments obtained from PCR amplification of human monocytes into the SmaI/XbaI cleavage site of the pFA-CMV vector (Stratagene, La Jolla, Calif., USA) and have already been published. […] Frame and sequence of the fusion receptors were verified by sequencing. pFR-Luc (Stratagene) was used as reporter plasmid and pRL-SV40 (Promega) for normalization of transfection efficacy and cell growth.
Turning to `CCOC(=O)C(CC)Cc1ccc(C(=O)NCc2ccccc2)cc1` (stereo not shown) [Compound 2b, Ethyl 2-ethyl 3-[4-(N-benzylbenzamide)]propanoate], the “EC50 PPARα” value is reported as “n.t. i.a. i.a. n.t”. As for `CCOC(=O)C(CC)Cc1ccc(C(=O)NCc2ccc(F)cc2)cc1` (stereo not shown) [Compound 7b, Ethyl 2-ethyl 3-[4-(N-((4-fluoro)benzyl)benzamide)]propanoate], the “EC50 PPARα” value was “n.t. i.a. i.a. n.t”.

Still in this test, the particulars now being: at 10 μM; compared to GW7647 1 μM.
For `CCOC(=O)C(CC)Cc1ccc(C(=O)NCc2ccccc2C)cc1` (stereo not shown) [Compound 3b, Ethyl 2-ethyl 3-[4-(N-((2-methyl)benzyl)benzamide)]propanoate], the “PPARα activation @10 μM” value is recorded as 15%.

Regarding `CCOC(=O)C(CC)Cc1ccc(C(=O)NCc2ccc(C(F)(F)F)cc2)cc1` (stereo not shown) [Compound 8b, Ethyl 2-ethyl 3-[4-(N-((4-trifluoromethyl)benzyl)benzamide)]propanoate], the “PPARα activation @10 μM” value came to 22%.

Staying with this test, now noted: compared to GW7647 1 μM.
As to `CCOC(=O)C(CC)Cc1ccc(C(=O)NCc2ccc(Oc3ccccc3)cc2)cc1` (stereo not shown) [Compound 12b, Ethyl 2-ethyl 3-[4-(N-((4-phenoxy)benzyl)benzamide)]propanoate], the “Emax-% PPARα (maximum activation in percent)” value was 110%.

Still in this test, the particulars now being: i.a. = inactive.
Take `CCOC(=O)C(CC)Cc1ccc(C(=O)NCc2ccccc2Cl)cc1` (stereo not shown) [Compound 4b, Ethyl 2-ethyl 3-[4-(N-((2-chloro)benzyl)benzamide)]propanoate]: the “EC50 PPARα” value is on record as “n.t. i.a. i.a. n.t”.

The target in the next test is T2, recombinant human sEH (Homo sapiens, UniProt P34913).
T2 sequence (P34913 1-555): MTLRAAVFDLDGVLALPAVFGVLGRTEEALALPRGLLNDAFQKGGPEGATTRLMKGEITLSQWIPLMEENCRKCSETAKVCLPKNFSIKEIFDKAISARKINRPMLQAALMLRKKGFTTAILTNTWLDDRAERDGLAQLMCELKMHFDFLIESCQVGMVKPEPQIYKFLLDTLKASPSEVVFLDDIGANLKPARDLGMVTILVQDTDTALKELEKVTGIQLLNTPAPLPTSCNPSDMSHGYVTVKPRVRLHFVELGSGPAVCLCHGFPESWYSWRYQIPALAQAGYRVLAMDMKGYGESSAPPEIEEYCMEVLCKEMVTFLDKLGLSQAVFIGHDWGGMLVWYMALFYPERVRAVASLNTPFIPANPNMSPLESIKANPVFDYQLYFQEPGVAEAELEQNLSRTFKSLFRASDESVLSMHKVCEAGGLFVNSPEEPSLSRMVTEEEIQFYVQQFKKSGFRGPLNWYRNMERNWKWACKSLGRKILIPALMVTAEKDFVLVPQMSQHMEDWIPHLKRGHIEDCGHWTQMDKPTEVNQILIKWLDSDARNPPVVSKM
As to the kind of experiment: biochemical. The conditions noted are these: read-out: IC50 sEH (converted).
On to `CC/C(=C\c1ccc(C(=O)NCc2ccccc2)cc1)C(=O)O` [Compound 2d, (E)-4-[N-Benzylbenzamide]-alpha-ethylcinnamic acid], for which the IC50 was 9300 nM. In the case of `CCOC(=O)/C(=C/c1ccc(C(=O)NCc2ccccc2C)cc1)CC` [Compound 3a, Ethyl (E)-4-[N-((2-methyl)benzyl)benzamide]-alpha-ethylcinnamate], the IC50 is 760 ± 50 nM. With `CC/C(=C\c1ccc(C(=O)NCc2ccccc2C)cc1)C(=O)O` [Compound 3d, (E)-4-[N-((2-Methyl)benzyl)benzamide]-alpha-ethylcinnamic acid], the IC50 was 10000 nM.

On to `CCOC(=O)/C(=C/c1ccc(C(=O)NCc2ccccc2Cl)cc1)CC` [Compound 4a, Ethyl (E)-4-[N-((2-chloro)benzyl)benzamide]-alpha-ethylcinnamate], for which the IC50 is 410 ± 140 nM. Still for that read-out and setting: the figure for `CC/C(=C\c1ccc(C(=O)NCc2ccccc2Cl)cc1)C(=O)O` [Compound 4d, (E)-4-[N-((2-Chloro)benzyl)benzamide]-alpha-ethylcinnamic acid] is 2800 nM; for `CCOC(=O)/C(=C/c1ccc(C(=O)NCc2ccccc2Br)cc1)CC` [Compound 5a, Ethyl (E)-4-[N-((2-bromo)benzyl)benzamide]-alpha-ethylcinnamate] it is 300 ± 80 nM; for `CC/C(=C\c1ccc(C(=O)NCc2ccccc2Br)cc1)C(=O)O` [Compound 5d, (E)-4-[N-((2-Bromo)benzyl)benzamide]-alpha-ethylcinnamic acid] it is 2400 nM. For the compound `CC/C(=C\c1ccc(C(=O)NCc2ccccc2OC(F)(F)F)cc1)C(=O)O` [Compound 6d, (E)-4-[N-((2-Trifluoromethoxy)benzyl)benzamide]-alpha-ethylcinnamic acid], the IC50 is 900 nM. Consider `CCOC(=O)/C(=C/c1ccc(C(=O)NCc2ccc(F)cc2)cc1)CC` [Compound 7a, Ethyl (E)-4-[N-((4-fluoro)benzyl)benzamide]-alpha-ethylcinnamate], for which the IC50 is 62 ± 3 nM. Regarding `CC/C(=C\c1ccc(C(=O)NCc2ccc(F)cc2)cc1)C(=O)O` [Compound 7d, (E)-4-[N-((4-Fluoro)benzyl)benzamide]-alpha-ethylcinnamic acid], the half-inhibitory concentration (IC50) is 6700 nM. For `CCOC(=O)/C(=C/c1ccc(C(=O)NCc2ccc(C(F)(F)F)cc2)cc1)CC` [Compound 8a, Ethyl (E)-4-[N-((4-trifluoromethyl)benzyl)benzamide]-alpha-ethylcinnamate], the IC50 was 550 ± 60 nM.

On to `CCOC(=O)/C(=C/c1ccc(C(=O)NCc2ccc(OC(F)(F)F)cc2)cc1)CC` [Compound 9a, Ethyl (E)-4-[N-((4-trifluoromethoxy)benzyl)benzamide]-alpha-ethylcinnamate], for which the IC50 was 880 ± 100 nM. Consider `CC/C(=C\c1ccc(C(=O)NCc2ccc(OC(F)(F)F)cc2)cc1)C(=O)O` [Compound 9d, (E)-4-[N-((4-Trifluoromethoxy)benzyl)benzamide]-alpha-ethylcinnamic acid], for which the IC50 was 1600 nM.

As for `CC/C(=C\c1ccc(C(=O)NCc2ccc(OC)cc2)cc1)C(=O)O` [Compound 10d, (E)-4-[N-((4-Methoxy)benzyl)benzamide]-alpha-ethylcinnamic acid], the IC50 is 13000 nM. Consider `CCOC(=O)/C(=C/c1ccc(C(=O)NCc2ccc(Oc3ccccc3)cc2)cc1)CC` [Compound 12a, Ethyl (E)-4-[N-((4-phenoxy)benzyl)benzamide]-alpha-ethylcinnamate], for which the IC50 is 1400 ± 60 nM.

Take `CC/C(=C\c1ccc(C(=O)NCc2ccc(Oc3ccccc3)cc2)cc1)C(=O)O` [Compound 12d, (E)-4-[N-((4-Phenoxy)benzyl)benzamide]-alpha-ethylcinnamic acid]: the IC50 is 800 nM. As for `CCOC(=O)/C(=C/c1ccc(C(=O)NCc2ccc(F)cc2C(F)(F)F)cc1)CC` [Compound 13a], the IC50 was 100 ± 10 nM. Same read-out and setting: the value for `CC/C(=C\c1ccc(C(=O)NCc2ccc(F)cc2C(F)(F)F)cc1)C(=O)O` [Compound 13d, (E)-4-[N-((4-Fluoro(2-trifluoromethyl))benzyl)benzamide]-alpha-ethylcinnamic acid] was 1200 nM; that for `CCOC(=O)/C(=C/c1ccc(C(=O)NCc2ccc(OC)cc2C(F)(F)F)cc1)CC` [Compound 14a] was 50 ± 9 nM; that for `CC/C(=C\c1ccc(C(=O)NCc2ccc(OC)cc2C(F)(F)F)cc1)C(=O)O` [Compound 14d] was 400 nM. As for `CCOC(=O)/C(=C/c1cccc(C(=O)NCc2ccccc2C(F)(F)F)c1)CC` [Compound 15a, Ethyl (E)-3-[N-((2-trifluoromethyl)benzyl)benzamide]-alpha-ethylcinnamate], the IC50 was 40 ± 6 nM.

On to `CC/C(=C\c1cccc(C(=O)NCc2ccccc2C(F)(F)F)c1)C(=O)O` [Compound 15d, (E)-3-[N-((2-Trifluoromethyl)benzyl)benzamide]-alpha-ethylcinnamic acid], for which the IC50 is 400 ± 100 nM.

For another test, the target named is T3, PPARδ (Homo sapiens, UniProt Q03181).
T3 construct: expressed in transfected cells; host or cells: COS-7
T3 sequence (Q03181 211-439): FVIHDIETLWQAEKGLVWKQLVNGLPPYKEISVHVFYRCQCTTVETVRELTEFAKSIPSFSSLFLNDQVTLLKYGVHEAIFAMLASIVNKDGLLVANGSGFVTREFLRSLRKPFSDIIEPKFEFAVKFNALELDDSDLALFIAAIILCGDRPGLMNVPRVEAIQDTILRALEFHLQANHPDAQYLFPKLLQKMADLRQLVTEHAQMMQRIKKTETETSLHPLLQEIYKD
As to the kind of experiment: PPAR transactivation assay in COS-7 cells (Gal4-hPPAR-LBD, luciferase). The class given is cell-based.
Settings: not given
As to the method:
as §1, §2, §3
For the compound `CCOC(=O)C(CC)Cc1ccc(C(=O)NCc2ccccc2)cc1` (stereo not shown) [Compound 2b, Ethyl 2-ethyl 3-[4-(N-benzylbenzamide)]propanoate], the “EC50 PPARδ” value is “n.t. i.a. i.a. n.t”. As to `CCOC(=O)C(CC)Cc1ccc(C(=O)NCc2ccc(F)cc2)cc1` (stereo not shown) [Compound 7b, Ethyl 2-ethyl 3-[4-(N-((4-fluoro)benzyl)benzamide)]propanoate], the “EC50 PPARδ” value is reported as “n.t. i.a. i.a. n.t”.

The same test, now with this note: i.a. = inactive.
As for `CCOC(=O)C(CC)Cc1ccc(C(=O)NCc2ccccc2C)cc1` (stereo not shown) [Compound 3b, Ethyl 2-ethyl 3-[4-(N-((2-methyl)benzyl)benzamide)]propanoate], the “EC50 PPARδ” value is “n.t. i.a. i.a. n.t”. Take `CCOC(=O)C(CC)Cc1ccc(C(=O)NCc2ccccc2Cl)cc1` (stereo not shown) [Compound 4b, Ethyl 2-ethyl 3-[4-(N-((2-chloro)benzyl)benzamide)]propanoate]: the “EC50 PPARδ” value was “n.t. i.a. i.a. n.t”.

With `CCOC(=O)C(CC)Cc1ccc(C(=O)NCc2ccc(C(F)(F)F)cc2)cc1` (stereo not shown) [Compound 8b, Ethyl 2-ethyl 3-[4-(N-((4-trifluoromethyl)benzyl)benzamide)]propanoate], the “EC50 PPARδ” value was “n.t. i.a. i.a. n.t”. On the same count and under the same terms, the value for `CCC(Cc1ccc(C(=O)NCc2ccc(C(F)(F)F)cc2)cc1)C(=O)O` (stereo not shown) [Compound 8c, 2-Ethyl 3-[4-(N-((4-trifluoromethyl)benzyl)benzamide)]propionic acid] was “n.t. i.a. i.a. n.t”; that for `CCOC(=O)C(CC)Cc1ccc(C(=O)NCc2ccc(OC(F)(F)F)cc2)cc1` (stereo not shown) [Compound 9b, Ethyl 2-ethyl 3-[4-(N-((4-trifluoromethoxy)benzyl)benzamide)]propanoate] was “n.t. i.a. i.a. n.t”; that for `CCC(Cc1ccc(C(=O)NCc2ccc(OC(F)(F)F)cc2)cc1)C(=O)O` (stereo not shown) [Compound 9c, 2-Ethyl 3-[4-(N-((4-trifluoromethoxy)benzyl)benzamide)]propionic acid] was “n.t. i.a. i.a. n.t”. In the case of `CCOC(=O)C(CC)Cc1ccc(C(=O)NCc2ccc(Oc3ccccc3)cc2)cc1` (stereo not shown) [Compound 12b, Ethyl 2-ethyl 3-[4-(N-((4-phenoxy)benzyl)benzamide)]propanoate], the “EC50 PPARδ” value is recorded as “i.a”.
